Source: ChEMBL document CHEMBL4130475, “Lorneic Acid Analogues from an Endophytic Actinomycete” (J Nat Prod, 2017)

How the values were obtained:
[1] = target: T1, Tyrosinase (Agaricus bisporus) (UniProt O42713); experiment: Inhibition of mushroom tyrosinase at 0.11 mM using L-DOPA as substrate after 5 mins by spectrophotometric analysis relative to control
T1 sequence (whole entry): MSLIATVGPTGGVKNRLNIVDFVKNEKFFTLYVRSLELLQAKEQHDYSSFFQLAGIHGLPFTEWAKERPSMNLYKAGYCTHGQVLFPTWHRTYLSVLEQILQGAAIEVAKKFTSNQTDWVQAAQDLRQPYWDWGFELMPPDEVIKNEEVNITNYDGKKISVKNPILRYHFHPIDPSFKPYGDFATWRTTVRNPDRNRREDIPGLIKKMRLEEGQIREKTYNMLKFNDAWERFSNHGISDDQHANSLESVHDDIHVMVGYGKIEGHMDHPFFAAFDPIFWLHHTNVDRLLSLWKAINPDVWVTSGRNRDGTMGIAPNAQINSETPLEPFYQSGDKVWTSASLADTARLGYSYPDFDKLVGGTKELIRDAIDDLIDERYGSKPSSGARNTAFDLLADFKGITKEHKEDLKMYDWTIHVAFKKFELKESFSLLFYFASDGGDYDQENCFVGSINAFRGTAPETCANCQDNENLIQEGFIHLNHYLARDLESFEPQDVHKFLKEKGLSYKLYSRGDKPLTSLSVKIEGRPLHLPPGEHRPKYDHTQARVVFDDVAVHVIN

[2] = target: T1, Tyrosinase (Agaricus bisporus); experiment: Inhibition of mushroom tyrosinase at 0.18 mM using L-DOPA as substrate after 5 mins by spectrophotometric analysis relative to control
[3] = target: T1, Tyrosinase (Agaricus bisporus); experiment: Inhibition of mushroom tyrosinase at 0.19 mM using L-DOPA as substrate after 5 mins by spectrophotometric analysis relative to control

Question: `CCCC(SSCC(NC(C)=O)C(=O)O)c1cc(C)ccc1/C=C/CCCC(=O)O` (stereo not drawn) was tested. Which inhibition [1] did it give?
Answer: Its inhibition is 18.9%.

Question: With `CCCC(O)c1cc(C)ccc1/C=C/CCCC(=O)O` (stereo not drawn) as the compound, how does the inhibition [2] read?
Answer: The inhibition was 27%.

Question: For `CC/C=C/c1cc(C)ccc1/C=C/CCCC(=O)O`, which inhibition [3] is on record?
Answer: The inhibition was 12.9%.
